# Where a SMILES comes first, the peptide text is derived from it.
# Key:
# [1] = target: Wnt-responsive promoter (TCF/LEF); experiment: Wnt-dependent luciferase reporter assay; assay type: cell-based, murine
# Method in brief: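 Murine 3T3 fibroblasts carrying a TCF/LEF-driven luciferase reporter, stimulated with Wnt3a in the presence of increasing peptide concentrations or vehicle. Luminescence inhibition gave EC50 values in uM.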
# β-catenin = target: T1, β-catenin (Homo sapiens, UniProt P35222); experiment: KD50 measurement using competitive fluorescence polarization (FP) with labelled TCF4; assay type: binding; settings: fluorescence polarization, β-catenin
# T1 sequence (P35222 1-781): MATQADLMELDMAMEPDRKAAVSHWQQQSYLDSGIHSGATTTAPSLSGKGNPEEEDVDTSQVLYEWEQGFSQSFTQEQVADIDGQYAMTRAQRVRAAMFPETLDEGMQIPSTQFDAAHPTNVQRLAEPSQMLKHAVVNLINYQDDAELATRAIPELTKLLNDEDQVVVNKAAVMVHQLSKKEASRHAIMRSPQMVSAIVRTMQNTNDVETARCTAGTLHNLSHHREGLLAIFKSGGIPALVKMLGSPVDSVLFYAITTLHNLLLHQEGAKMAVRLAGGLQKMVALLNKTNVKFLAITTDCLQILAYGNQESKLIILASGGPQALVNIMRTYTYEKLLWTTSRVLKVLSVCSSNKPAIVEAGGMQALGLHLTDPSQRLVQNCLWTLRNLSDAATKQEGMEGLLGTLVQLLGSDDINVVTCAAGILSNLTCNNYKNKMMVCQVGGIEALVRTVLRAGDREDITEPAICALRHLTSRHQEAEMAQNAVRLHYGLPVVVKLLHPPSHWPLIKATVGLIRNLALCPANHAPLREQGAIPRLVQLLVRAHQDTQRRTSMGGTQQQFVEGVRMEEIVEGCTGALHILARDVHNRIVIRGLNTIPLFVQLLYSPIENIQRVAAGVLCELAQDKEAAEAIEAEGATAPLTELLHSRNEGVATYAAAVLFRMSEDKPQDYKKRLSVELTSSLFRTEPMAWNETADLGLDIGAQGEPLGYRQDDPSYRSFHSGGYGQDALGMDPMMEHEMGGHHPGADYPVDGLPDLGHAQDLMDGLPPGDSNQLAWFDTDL
# Method in brief: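 Each compound competes against labelled TCF4 (5 nM) for 100 nM β-catenin at room temperature, tested over 10 nM to 30 uM. Signal: polarization at 470/520 nm excitation/emission. Three repeat experiments were performed.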
EC50 [1] [µM],β-Cat FP Hill slope (β-catenin),Kd (β-catenin; read-out: β-Cat FP KD) [µM],SMILES,% Viability non-Wnt responsive cells (non-Wnt responsive cells) [%]
< 7.5,0.92,0.4 to 1,CC[C@H](C)[C@H](NC(=O)[C@H](CC(C)C)NC(=O)[C@@H](NC(=O)[C@H](Cc1c[nH]c2ccccc12)NC(=O)[C@@H](N)CCSC)[C@@H](C)CC)C(=O)N[C@@H](CO)C(=O)N[C@@H](Cc1ccccc1)C(=O)N[C@@H](Cc1c[nH]c2ccccc12)C(=O)NCC(=O)O [compound 43] (H-MWILISFWG-OH),98.97
> 30,1.15,,"CC[C@H](C)[C@@H]1NC(=O)[C@H](CC(C)C)NC(=O)[C@H](Cc2ccccc2)NC(=O)[C@H](Cc2c[nH]c3ccccc23)NC(=O)[C@@H](N)CCCCNC(=O)CC[C@@H](C(=O)N[C@@H](Cc2c[nH]c3ccccc23)C(=O)NCC(=O)O)NC(=O)[C@H](CS)NC1=O [compound 181] (HELM PEPTIDE1{K.W.F.L.I.C.E.W.G}$PEPTIDE1,PEPTIDE1,1:R3-7:R3$$$V2.0)",89.16
